Test results taken from patent publication US20100075435A1, “BIOTINYLATED THYROXINE” (priority 2008, published 2010).

Test system: T4-streptavidin (Biotin-PEG4-T4 streptavidin conjugate) immobilized flow cell Fc3
Assay: SPR bivalent kinetic analysis of antibodies on T4-streptavidin immobilized flow cell (Biocore 3000, CM5 chip)
Type: binding
Conditions: comparison of antibodies 1 and 2
Protocol: The biotinylated thyroxine obtained in Example 1 (PEG n=4) (Biotin-PEG4-T4) (1.2 mg) was dissolved in 189.8 microliters of DMSO.
A 98 microliter quantity of 1 mg/mL of streptavidin and 1.33 microliters of the DMSO solution (5 mM) of Biotin-PEG4-T4 obtained above were dissolved in 0.67 microliters of HBSN. Here, the streptavidin:biotin ratio was 1:4 (mole ratio).
A Biocore 3000 (Biocore) was employed as the surface plasmon resonance (SPR) device. CM5 sensor chips were employed, and four flow cells (Fc 1 to 4) were prepared according to the following procedure. The flow rate was 10 microliters/min.
A flow of a 70 microliter quantity of a mixed solution of equal quantities of EDC (1-ethyl-3-(3-dimethylaminopropyl)carbodiimide) and NHS (N-hydroxysuccinimide) was run (7 minutes), after which a flow of a 70 microliter quantity of a solution of streptavidin in […] (0.2 mg/mL, pH 5.0) was run (7 minutes). Subsequently, a flow of ethanolamine was similarly run.
A flow of a 70 microliter quantity of mixed solution of equal quantities of EDC and NHS was run (7 minutes), after which a flow of a 70 microliter solution of T4-streptavidin in […] (0.2 mg/mL, pH 5.0) was run (7 minutes). […]
It was necessary to conduct interaction analysis at the minimum level of immobilization within the range over which the S/N ratio could be calculated. […]

COC(=O)C(Cc1cc(I)c(Oc2cc(I)c(O)c(I)c2)c(I)c1)NC(=O)CCOCCOCCOCCOCCNC(=O)CCCCC1SCC2NC(=O)NC21 (stereo not shown) [Example 1, Biotinylated Thyroxine (PEG n=4)]
binding rates: about the same binding rates
